Test results as given in ChEMBL document CHEMBL1139870, “Structure-guided optimization of small molecules inhibiting human immunodeficiency virus 1 Tat association with the human coactivator p300/CREB binding protein-associated factor” (J Med Chem, 2007).
The source made the active and inactive calls. The calls are words filed in the database; no cut-off is given here.

Target: Cyclin-dependent kinase inhibitor 1 (Homo sapiens) (UniProt P38936)
Assay: Effect on p53-induced p21 transcription in response to DNA damage at 5 uM

Sequence of Cyclin-dependent kinase inhibitor 1 (Homo sapiens) (P38936 whole entry): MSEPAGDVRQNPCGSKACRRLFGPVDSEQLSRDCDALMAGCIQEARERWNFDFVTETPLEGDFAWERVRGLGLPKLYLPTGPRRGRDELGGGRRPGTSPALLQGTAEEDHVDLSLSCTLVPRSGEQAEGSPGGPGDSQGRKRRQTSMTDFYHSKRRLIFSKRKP

SMILES	Activity
Cc1ccc(NCCCN)c([N+](=O)[O-])c1	inactive
CC(Cl)c1ccc(NCCCN)c([N+](=O)[O-])c1 (configuration not stated)	inactive
